This is an account of results in patent US4329352A, “Piperidine derivatives of 3-hydroxy-thiophene-2-carboxylic acid esters and pharmaceutical formulations containing these compounds” (BASF Aktiengesellschaft, priority 1979, dated 1982).

A short description of data set [1]: Toxicity in rats, oral administration: dose at which toxic symptoms (changes in the initial ECG, cyanosis or cramp) occur. Type of data set: in vivo, rat (Sprague Dawley). The settings on record: for TD50 / selectivity ratio: rat, in vivo; for selectivity ratio: read-out: Q (therapeutic range): quotient of toxic dose and anti-arrhythmically effective dose (ED 50%). How it is done: (§1) To determine the anti-arrhythmic activity, the substance is administered orally to rats (Sprague Dawley, weight 200-250 g) 45 minutes before the start of narcosis. The animals are narcotized with 100 mg/kg of sodium thiobutabarbital administered intraperitone-ally. The arrhythmogenic substance is aconitine which is infused intravenously, at a dosage rate of 0.005 mg/kg×min, 60 minutes after administration of the novel substance. In the case of untreated animals (N=52), arrhythmias are noted in the electrocardiogram after 2.74±0.07 min, and the occurrence of these can be delayed by anti-arrhythmic agents, to an extent which depends on the dose.
(§2) For further characterization of the substance, the anti-arrhythmic effect of the maximum tolerated dose is determined from the decimal-geometric dosage progression (factor ^3 .cuberoot.10) used in the experiments. In addition, the dose at which toxic symptoms (changes in the initial ECG, cyanosis or cramp) occur is determined. Moreover, the anti-arrhythmic activity of the compounds according to the invention is determined on isolated left atria of male guineapigs (Pirbright white, weight 350-450 g).

The subject of data set [2] is aconitine-induced arrhythmia. Description: in vivo. Type of data set: in vivo, rat (Sprague Dawley). The method, then: as §1
(§3) The dose which prolongs the infusion duration by 50%, ie. the ED 50%, is determined from the linear relationship between log dose (mg/kg) of test substance and relative prolongation of aconitine infusion duration (Δ%).
as §2

The nature of a further data set: in vivo. Type of data set: in vivo, rat (Sprague Dawley). The settings on record: rat, in vivo; rats, oral; decimal-geometric dosage progression; read-out: Maximum effect: Dose (maximum tolerated dose). The method, then:
as §1, §3, §2

Data set [3] deals with isolated left atria of male guineapigs. Description: Anti-arrhythmic activity on isolated left guineapig atria (maximum driving rate). Also noted: species or system guineapig (Pirbright white). The settings on record: for R.A. = relative activity (maximum sequence frequency): Procainamide = 1.00; for Maximum sequence frequency EC 50%: concentration which produces a 50% decrease in the maximum sequence frequency: Tyrode's solution pH 7.4, 32° C.
Procedure: As a criterion of the anti-arrhythmic action, the frequency (in Hz) at which the atria are just still able to follow the sequence of pulses (the maximum driving rate) is determined by automatic continuous increase in frequency. The concentration which produces a 50% decrease in maximum driving rate, ie. the ED 50%, is calculated from the linear relationship between log concentration (mg/l) and relative decrease in maximum driving rate (Δ%).

Data set [4] shares this test system. The data set can be described thus: Negatively inotropic effect on isolated left guineapig atria (decrease in contraction amplitude). Also noted: species or system guineapig (Pirbright white). The settings on record: for R.A. = relative activity (force of contraction): Procainamide = 1.00; for Force of contraction EC 25%: concentration which produces a 25% decrease in the force of contraction: Tyrode's solution pH 7.4, 32° C. How it is done:
Atria suspended in an organ bath (volume 125 ml) containing carbogen-saturated Tyrode's solution (pH 7.4, 32° C.) are prestressed with 1.0 g and are driven by square wave pulses of 1 Hz base rhythm and double stimulation threshold values (rheo base: 0.2-1.4 V, chronaxia: 0.3-0.5 msec).
Further, the concentration which produces a 25% decrease in amplitude, ie. the EC 25%, is determined, as a measure of the negatively inotropic effect, from the linear relationship between log concentration (mg/l) and relative change in contraction amplitude (Δ%).

Where [5] appears, read: rats, oral, greater than procainamide.
The mark [6] stands for this setting: rats, oral, maximum tolerated dose.
Setting [7] is: isolated guineapig atria, compared with procainamide.

SMILES strings stand for the structures. Like-named read-outs stand apart in the source and are kept apart here.

For the compound `COC(=O)c1sccc1OCC(O)CN1CCC(O)(c2ccccc2)CC1` (stereo not shown) [Example 1, 3-[2-hydroxy-3-(4-phenyl-4-hydroxy-piperidino)-propoxy]-thiophene-2-carboxylic acid methyl ester], the TD50 in data set [1] (rats, oral, changes in initial ECG, cyanosis or cramp, read-out: Toxicity: dose whose administration produces the first toxic symptoms) came to 464 mg/kg. Also, the selectivity ratio in data set [1] (rats, oral) turned out to be 9.9. Also, the “therapeutic range (toxic dose / ED 50%), relative to procainamide” value in data set [1] (setting [5]) was 1.6 times. Besides, the “R.A. = relative activity (effective dose)” value in data set [2] (Procainamide = 1.00, rats, oral) came out at 3.36. In addition, the “R.M.E. = relative maximum effect” value in data set [2] (Procainamide = 1.00, rats, oral, maximum tolerated dose) turned out to be 2.19. Moreover, in data set [2] (Rattus norvegicus, po, read-out: ED 50%: dose which prolongs the duration of aconitine infusion by 50%), the ED50 worked out at 46.8 mg/kg. Besides, the “Maximum effect: prolongation of duration of aconitine infusion, Δ %, at the maximum tolerated dose” value in data set [2] (setting [6]) is reported as 296%. Moreover, the “anti-arrhythmic effect on aconitine-induced arrhythmia, relative to procainamide” value in data set [2] (setting [5]) was in the range of 3 to 4 times. In addition, the MTD in the data set “in vivo” was 215 mg/kg. Further, in data set [3] (isolated guineapig atria), the “R.A. = relative activity (maximum sequence frequency)” value is reported as 68.7, the “Q: quotient of EC 25% force of contraction decrease : EC 50% maximum driving rate” value is 2.6 and the “Maximum sequence frequency EC 50%: concentration which produces a 50% decrease in the maximum sequence frequency” value is 1.47 µg/mL. For the same compound, the “anti-arrhythmic effect on isolated guineapig atria, relative to procainamide” value in data set [3] (as great as that of procainamide) is reported as 69 times. For the same compound, in data set [3] (setting [7]), the “difference between anti-arrhythmic and negatively inotropic effect (quotient EC 25% : EC 50%), in words” value is reported as “substantially greater than for procainamide”; the “therapeutic range as far as effects on guineapig atria are concerned, in words” value was “greater therapeutic range”. In data set [4], the “R.A. = relative activity (force of contraction)” value was found to be 14.8 and the “Force of contraction EC 25%: concentration which produces a 25% decrease in the force of contraction” value was determined as 3.80 µg/mL.
The compound `CCN(CC)CCNC(=O)c1ccc(N)cc1` [Procainamide, procainamide, reference compound] came in with a TD50 in data set [1] (po) of 1000 mg/kg. Moreover, the selectivity ratio in data set [1] (rats, oral) amounted to 6.4. For the same compound, in data set [2] (setting [6]), the “Maximum effect: prolongation of duration of aconitine infusion, Δ %, at the maximum tolerated dose” value turned out to be 135%. In data set [3] (isolated guineapig atria), the “R.A. = relative activity (maximum sequence frequency)” value is recorded as 1.00, the “Q: quotient of EC 25% force of contraction decrease : EC 50% maximum driving rate” value is recorded as 0.56 and the “Maximum sequence frequency EC 50%: concentration which produces a 50% decrease in the maximum sequence frequency” value amounted to 101 µg/mL. For the same compound, in data set [4], the “R.A. = relative activity (force of contraction)” value is 1.00 and the “Force of contraction EC 25%: concentration which produces a 25% decrease in the force of contraction” value turned out to be 56.4 µg/mL.
